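Results reflect a 48-hour exposure of cells in 96-well plates to compound at five concentrations. Here, GI50 denotes the concentration required for 50% inhibition of growth. At the TGI there is no net growth.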
Tests used:
Assay in all cases: NCI-60 cell line screen, 48 h
OVCAR-3 ovarian = test system: OVCAR-3 ovarian
SN12C renal = test system: SN12C renal
CAKI-1 renal = test system: CAKI-1 renal
SK-OV-3 ovarian = test system: SK-OV-3 ovarian
UO-31 renal = test system: UO-31 renal
NCI-H226 lung = test system: NCI-H226 lung
SF-295 CNS = test system: SF-295 CNS
MDA-MB-231 breast = test system: MDA-MB-231 breast
KM12 colon = test system: KM12 colon
NCI/ADR-RES ovarian = test system: NCI/ADR-RES ovarian
HCC-2998 colon = test system: HCC-2998 colon
HCT-15 colon = test system: HCT-15 colon
UACC-62 melanoma = test system: UACC-62 melanoma
OVCAR-4 ovarian = test system: OVCAR-4 ovarian
MALME-3M melanoma = test system: MALME-3M melanoma
HOP-92 NSCLC = test system: HOP-92 NSCLC
NCI-H522 lung = test system: NCI-H522 lung
RXF 393 renal = test system: RXF 393 renal
HL-60(TB) leukemia = test system: HL-60(TB) leukemia
PC-3 prostate = test system: PC-3 prostate
SK-MEL-28 melanoma = test system: SK-MEL-28 melanoma
U251 CNS = test system: U251 CNS
786-0 renal = test system: 786-0 renal
A498 renal = test system: A498 renal
CCRF-CEM leukemia = test system: CCRF-CEM leukemia

## Cn1cc(-c2csc(-c3c[nH]c4ccccc34)n2)c2cnccc21
OVCAR-3 ovarian
  GI50: 1.96 µM
  TGI: 3.56 µM
SN12C renal
  GI50: 1.74 µM
  TGI: 3.31 µM
CAKI-1 renal
  GI50: 2.08 µM
  TGI: 4.71 µM
SK-OV-3 ovarian
  GI50: 1.9 µM
  TGI: 3.72 µM
UO-31 renal
  GI50: 1.64 µM
  TGI: 3.35 µM
NCI-H226 lung
  GI50: 17.1 µM
  TGI: 45.4 µM
SF-295 CNS
  GI50: 1.81 µM
  TGI: 3.37 µM
MDA-MB-231 breast
  GI50: 1.67 µM
  TGI: 3.22 µM
KM12 colon
  GI50: 1.65 µM
  TGI: 3.41 µM
NCI/ADR-RES ovarian
  GI50: 2.4 µM
  TGI: 5.44 µM
HCC-2998 colon
  GI50: 2.01 µM
  TGI: 3.61 µM
HCT-15 colon
  GI50: 1.79 µM
  TGI: 3.6 µM
UACC-62 melanoma
  GI50: 1.82 µM
  TGI: 3.32 µM
OVCAR-4 ovarian
  GI50: 2.3 µM
  TGI: 6.52 µM
MALME-3M melanoma
  GI50: 1.94 µM
  TGI: 3.62 µM
HOP-92 NSCLC
  GI50: 1.52 µM
  TGI: 3.28 µM
NCI-H522 lung
  GI50: 2.02 µM
  TGI: 3.91 µM
RXF 393 renal
  GI50: 1.63 µM
  TGI: 3.11 µM
HL-60(TB) leukemia
  GI50: 2.17 µM
  TGI: 4.77 µM
PC-3 prostate
  GI50: 2.4 µM
  TGI: 6.31 µM
SK-MEL-28 melanoma
  GI50: 1.8 µM
  TGI: 3.25 µM
U251 CNS
  GI50: 1.95 µM
  TGI: 3.72 µM
786-0 renal
  GI50: 1.9 µM
  TGI: 3.44 µM
A498 renal
  GI50: 1.89 µM
  TGI: 3.58 µM
CCRF-CEM leukemia
  GI50: 2.4 µM
  TGI: 6.42 µM

From PubChem BioAssay (NCI)
